According to ChEMBL document CHEMBL3044672, “N9- and N7-(Chloromethyl Phenymethyl)Chloropurine Derivatives from , '-Dichloroxylenes: Synthesis and Anticancer Activity” (2005):

Key:
Assay type in all cases: functional
[1] = tested on: A498; assay: Cytotoxicity against Homo sapiens (human) A498 cells after 48 hr by sulforhodamine B assay; conditions: A498, 48 h
[2] = tested on: ACHN; assay: Cytotoxicity against Homo sapiens (human) ACHN cells after 48 hr by sulforhodamine B assay
[3] = tested on: 786-0; assay: Cytotoxicity against Homo sapiens (human) 786-0 cells after 48 hr by sulforhodamine B assay; conditions: 786-0, 48 h
[4] = tested on: SK-OV-3; assay: Cytotoxicity against Homo sapiens (human) SKOV3 cells after 48 hr by sulforhodamine B assay; conditions: SK-OV-3, 48 h
[5] = tested on: OVCAR-4; assay: Cytotoxicity against Homo sapiens (human) OVCAR4 cells after 48 hr by sulforhodamine B assay; conditions: OVCAR-4, 48 h
[6] = tested on: IGROV-1; assay: Cytotoxicity against Homo sapiens (human) IGROV1 cells after 48 hr by sulforhodamine B assay; conditions: IGROV-1, 48 h
[7] = tested on: OVCAR-3; assay: Cytotoxicity against Homo sapiens (human) OVCAR3 cells after 48 hr by sulforhodamine B assay; conditions: OVCAR-3, 48 h
[8] = tested on: UACC-62; assay: Cytotoxicity against Homo sapiens (human) UACC62 cells after 48 hr by sulforhodamine B assay; conditions: UACC-62, 48 h
[9] = tested on: SK-MEL-5; assay: Cytotoxicity against Homo sapiens (human) SK-MEL-5 cells after 48 hr by sulforhodamine B assay; conditions: SK-MEL-5, 48 h
[10] = tested on: SK-MEL-2; assay: Cytotoxicity against Homo sapiens (human) SK-MEL-2 cells after 48 hr by sulforhodamine B assay; conditions: SK-MEL-2, 48 h
[11] = tested on: LOX IMVI; assay: Cytotoxicity against Homo sapiens (human) LOXIMVI cells after 48 hr by sulforhodamine B assay
[12] = tested on: SF-539; assay: Cytotoxicity against Homo sapiens (human) SF539 cells after 48 hr by sulforhodamine B assay; conditions: SF-539, 48 h
[13] = tested on: T47D; assay: Cytotoxicity against Homo sapiens (human) T47D cells after 48 hr by sulforhodamine B assay
[14] = tested on: MDA-MB-231; assay: Cytotoxicity against Homo sapiens (human) MDA-MB-231 cells after 48 hr by sulforhodamine B assay; conditions: MDA-MB-231, 48 h
[15] = tested on: DU-145; assay: Cytotoxicity against Homo sapiens (human) DU145 cells after 48 hr by sulforhodamine B assay; conditions: DU-145, 48 h
[16] = tested on: UO-31; assay: Cytotoxicity against Homo sapiens (human) UO31 cells after 48 hr by sulforhodamine B assay; conditions: UO-31, 48 h
[17] = tested on: PC-3; assay: Cytotoxicity against Homo sapiens (human) PC3 cells after 48 hr by sulforhodamine B assay; conditions: PC-3, 48 h
[18] = tested on: RXF 393; assay: Cytotoxicity against Homo sapiens (human) RXF393 cells after 48 hr by sulforhodamine B assay; conditions: RXF 393, 48 h
[19] = tested on: SF-295; assay: Cytotoxicity against Homo sapiens (human) SF295 cells after 48 hr by sulforhodamine B assay; conditions: SF-295, 48 h
[20] = tested on: SW-620; assay: Cytotoxicity against Homo sapiens (human) SW620 cells after 48 hr by sulforhodamine B assay; conditions: SW-620, 48 h
[21] = tested on: KM12; assay: Cytotoxicity against Homo sapiens (human) KM12 cells after 48 hr by sulforhodamine B assay; conditions: KM12, 48 h
[22] = tested on: HCT-15; assay: Cytotoxicity against Homo sapiens (human) HCT15 cells after 48 hr by sulforhodamine B assay; conditions: HCT-15, 48 h
[23] = tested on: HCT-116; assay: Cytotoxicity against Homo sapiens (human) HCT116 cells after 48 hr by sulforhodamine B assay; conditions: HCT-116, 48 h
[24] = tested on: HCC 2998; assay: Cytotoxicity against Homo sapiens (human) HCC2998 cells after 48 hr by sulforhodamine B assay; conditions: HCC 2998, 48 h
[25] = tested on: NCI-H322M; assay: Cytotoxicity against Homo sapiens (human) NCI-H322M cells after 48 hr by sulforhodamine B assay
[26] = tested on: HOP-62; assay: Cytotoxicity against Homo sapiens (human) HOP62 cells after 48 hr by sulforhodamine B assay; conditions: HOP-62, 48 h
[27] = tested on: EKVX; assay: Cytotoxicity against Homo sapiens (human) EKVX cells after 48 hr by sulforhodamine B assay
[28] = tested on: A549; assay: Cytotoxicity against Homo sapiens (human) A549 cells after 48 hr by sulforhodamine B assay; conditions: A549, 48 h
[29] = tested on: RPMI-8226; assay: Cytotoxicity against Homo sapiens (human) RPMI8226 cells after 48 hr by sulforhodamine B assay; conditions: RPMI-8226, 48 h
[30] = tested on: MOLT-4; assay: Cytotoxicity against Homo sapiens (human) MOLT4 cells after 48 hr by sulforhodamine B assay; conditions: MOLT-4, 48 h
[31] = tested on: CCRF-CEM; assay: Cytotoxicity against Homo sapiens (human) CCRF-CEM cells after 48 hr by sulforhodamine B assay
[32] = tested on: SF-268; assay: Cytotoxicity against Homo sapiens (human) SF268 cells assessed as cell growth at 10^-4 M after 48 hr by […] assay; conditions: SF-268, 48 h, read-out: Activity
[33] = read-out: LC50 (the source's name)

## ClCc1ccccc1Cn1cnc2c(Cl)nc(Cl)nc21
[1]
  GI50: 2400 nM
  LC50 (lethal concentration, 50% cell kill): 9550 nM
  TGI: 4780 nM
[2]
  GI50: 470 nM
  TGI: 1620 nM
[2]; [33]
  CC50: 4160 nM
[3]
  GI50: 1860 nM
  LC50: 6450 nM
  TGI: 3470 nM
[4]
  GI50: 1820 nM
  LC50: 6910 nM
  TGI: 3540 nM
[5]
  GI50: 1770 nM
  TGI: 3630 nM
[6]
  GI50: 1540 nM
  LC50: 7070 nM
  TGI: 3310 nM
[7]
  GI50: 210 nM
  LC50: 1540 nM
  TGI: 510 nM
[8]
  GI50: 1310 nM
  LC50 (concentration causing 50% net cell kill): 5240 nM
  TGI: 2630 nM
[9]
  GI50: 420 nM
  LC50: 4260 nM
  TGI: 1540 nM
[10]
  GI50: 2180 nM
  LC50 (concentration killing 50% of cells): 8510 nM
  TGI: 4360 nM
[11]
  GI50: 150 nM
  LC50: 850 nM
  TGI: 360 nM
[12]
  GI50: 1470 nM
  LC50 (concentration killing 50% of cells): 5620 nM
  TGI: 2880 nM
[13]
  GI50: 1990 nM
  LC50: > 100000 nM
  TGI: 5490 nM
[14]
  GI50: 330 nM
  LC50: 3980 nM
  TGI: 1380 nM
[15]
  GI50: 130 nM
  LC50: 6310 nM
  TGI: 2950 nM
[16]
  GI50: 420 nM
  LC50 (concentration causing 50% net cell kill): 5920 nM
  TGI: 1510 nM
[17]
  GI50: 440 nM
  LC50 (concentration causing 50% cell kill): 5120 nM
  TGI: 1620 nM
[18]
  GI50: 100 nM
  TGI: 490 nM
[19]
  GI50: 1900 nM
  TGI: 3380 nM
[19]; [33]
  CC50: 6020 nM
[20]
  GI50: 150 nM
  TGI: 350 nM
[20]; [33]
  CC50: 810 nM
[21]
  GI50: 1470 nM
  TGI: 2950 nM
[21]; [33]
  CC50: 5880 nM
[22]
  GI50: 330 nM
  TGI: 1200 nM
[22]; [33]
  CC50: 4780 nM
[23]
  GI50: 190 nM
  TGI: 380 nM
[23]; [33]
  CC50: 750 nM
[24]
  TGI: 3380 nM
[24]; [33]
  CC50: 6160 nM
[25]
  GI50: 1730 nM
  TGI: 3270 nM
[25]; [33]
  CC50: 5880 nM
[26]
  GI50: 2040 nM
  TGI: 3630 nM
[26]; [33]
  CC50: 6450 nM
[27]
  GI50: 1770 nM
  TGI: 3230 nM
[27]; [33]
  CC50: 5880 nM
[28]
  GI50: 2230 nM
  TGI: 4670 nM
[29]
  GI50: 380 nM
  TGI: 1540 nM
[30]
  GI50: 200 nM
  TGI: 630 nM
[30]; [33]
  CC50: 3540 nM
[31]
  GI50: 30 nM
  TGI: 90 nM
[31]; [33]
  CC50: 470 nM
[32]
  growth at 100 µM: 0%
